Where two headings read alike, the source gives them in different places.

Assay [1] concerns the target T1, MAP4K2 (GCK) (Homo sapiens, UniProt Q12851).
T1 sequence (Q12851 1-820): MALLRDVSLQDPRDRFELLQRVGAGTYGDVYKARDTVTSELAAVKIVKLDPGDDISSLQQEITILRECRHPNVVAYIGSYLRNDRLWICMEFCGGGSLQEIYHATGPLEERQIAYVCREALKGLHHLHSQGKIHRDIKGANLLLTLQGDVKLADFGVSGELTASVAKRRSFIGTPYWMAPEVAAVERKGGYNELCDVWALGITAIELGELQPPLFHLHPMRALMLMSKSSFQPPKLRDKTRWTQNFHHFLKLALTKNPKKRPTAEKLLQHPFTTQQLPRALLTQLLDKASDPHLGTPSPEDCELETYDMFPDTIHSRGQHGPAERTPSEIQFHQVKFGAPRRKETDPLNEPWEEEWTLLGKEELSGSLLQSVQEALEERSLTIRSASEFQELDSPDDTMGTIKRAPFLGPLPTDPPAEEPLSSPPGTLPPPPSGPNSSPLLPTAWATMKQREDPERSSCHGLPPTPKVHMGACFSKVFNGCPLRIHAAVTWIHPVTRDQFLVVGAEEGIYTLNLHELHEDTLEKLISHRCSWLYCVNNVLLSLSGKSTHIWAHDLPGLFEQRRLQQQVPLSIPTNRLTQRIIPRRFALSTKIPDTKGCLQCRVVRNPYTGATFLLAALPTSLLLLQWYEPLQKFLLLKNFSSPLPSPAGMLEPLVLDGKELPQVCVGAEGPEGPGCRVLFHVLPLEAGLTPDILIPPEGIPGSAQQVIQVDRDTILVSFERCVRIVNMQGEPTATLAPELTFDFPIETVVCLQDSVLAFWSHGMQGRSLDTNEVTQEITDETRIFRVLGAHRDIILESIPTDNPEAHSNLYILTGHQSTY
Description: Z'-LYTE SelectScreen biochemical kinase assay MAP4K2 (GCK). The source says:
(§1) Thermo Fisher Scientific SelectScreen™ Biochemical Kinase Profiling Service Z′-LYTE™ Screening Protocol and Assay Conditions Assay Theory
(§2) The […] biochemical assay employs a fluorescence-based, coupled-enzyme format and is based on the differential sensitivity of phosphorylated and non-phosphorylated peptides to proteolytic cleavage. The peptide substrate is labeled with two fluorophores—one at each end—that make up a FRET pair. In the primary reaction, the kinase transfers the gamma-phosphate of ATP to a single tyrosine, serine or threonine residue in a synthetic FRET-peptide. In the secondary reaction, a site-specific protease recognizes and cleaves non-phosphorylated FRET-peptides. Phosphorylation of FRET-peptides suppresses cleavage by the Development Reagent. Cleavage disrupts FRET between the donor (i.e., coumarin) and acceptor (i.e., fluorescein) fluorophores on the FRET-peptide, whereas uncleaved, phosphorylated FRET-peptides maintain FRET. A ratiometric method, which calculates the ratio (Emission Ratio=Coumarin emission (445 nm)/Fluorescein emission (520 nm)) of donor emission to acceptor emission after excitation of the donor fluorophore at 400 nm, is used to quantitate reaction progress, as shown in the equation below. A significant benefit of this ratiometric method for quantitating reaction progress is the elimination of well-to-well variations in FRET-peptide concentration and signal intensities. As a result, the assay yields very high Z′-factor values (>0.7) at a low percent phosphorylation. Both cleaved and uncleaved FRET-peptides contribute to the fluorescence signals and therefore to the Emission Ratio. The extent of phosphorylation of the FRET-peptide can be calculated from the Emission Ratio. The Emission Ratio will remain low if the FRET-peptide is phosphorylated (i.e., no kinase inhibition) and will be high if the FRET-peptide is non-phosphorylated (i.e., kinase inhibition).
(§3) The Test Compounds are screened in 1% DMSO (final) in the well. For 10 point titrations, 3-fold serial dilutions are conducted from the starting concentration of the customer's choosing.
(§4) All Peptide/Kinase Mixtures are diluted to a 2× working concentration in the appropriate Kinase Buffer (see section Kinase Specific Assay Conditions for a complete description).
(§5) All ATP Solutions are diluted to a 4× working concentration in Kinase Buffer (50 mM HEPES pH 7.5, 0.01% BRIJ-35, 10 mM MgCl2, 1 mM EGTA). ATP Km apparent is previously determined using a Z″-LYTE assay.
(§6) The Development Reagent is diluted in Development Buffer (see section Kinase-Specific Assay Conditions—Direct and Cascade for a complete description).
(§7) Bar-coded Corning, low volume NBS, black 384-well plate (Corning Cat. #4514) • 1. 100 nL—100× Test Compound in 100% DMSO • 2. 2.4 μL—Kinase buffer • 3. 5 μL—2× Peptide/Kinase Mixture • 4. 2.5 μL—4×ATP Solution • 5. 30—second plate shake • 6. 60—minute Kinase Reaction incubation at room temperature • 7. 5 μL—Development Reagent Solution • 8. 30—second plate shake • 9. 60—minute Development Reaction incubation at room temperature • 10. Read on fluorescence plate reader and analyze the data Z′-LYTE Assay Controls
(§8) SelectScreen Kinase Profiling Service uses XLfit from IDBS. The dose response curve is curve fit to model number 205 (sigmoidal dose-response model).
The 2×MAP4K2 (GCK)/Ser/Thr 07 mixture is prepared in 50 mM HEPES pH 7.5, 0.01% BRIJ-35, 10 mM MgCl2, 1 mM EGTA. The final 10 μL Kinase Reaction consists of 0.11-3 ng MAP4K2 (GCK) and 2 μM Ser/Thr 07 in 50 mM HEPES pH 7.5, 0.01% BRIJ-35, 10 mM MgCl2, 1 mM EGTA. After the 1 hour Kinase Reaction incubation, 5 μL of a 1:45000 dilution of Development Reagent A is added.

Assay [2] has as its target MAP4K4 (HGK) (Homo sapiens, UniProt O95819). The assay can be described thus: Z'-LYTE SelectScreen biochemical kinase assay MAP4K4 (HGK).
Text: as §1, §2, §3, §4, §5, §6, §7, §8
The 2×MAP4K4 (HGK)/Ser/Thr 07 mixture is prepared in 50 mM HEPES pH 7.5, 0.01% BRIJ-35, 10 mM MgCl2, 1 mM EGTA. The final 10 μL Kinase Reaction consists of 0.36-1.82 ng MAP4K4 (HGK) and 2 μM Ser/Thr 07 in 50 mM HEPES pH 7.5, 0.01% BRIJ-35, 10 mM MgCl2, 1 mM EGTA. After the 1 hour Kinase Reaction incubation, 5 μL of a 1:45000 dilution of Development Reagent A is added.

[3] abbreviates: 10 μmolar compound concentration, ATP at Km app, read-out: MAP4K2 (GCK) inhibition.
The mark [4] stands for this setting: read-out: % Inhibition mean MAP4K2 (GCK).
[5] abbreviates: 10 μmolar compound concentration, ATP at Km app, read-out: MAP4K4 (HGK) inhibition.
Where [6] appears, read: read-out: % Inhibition mean MAP4K4 (HGK).

MAP4K4 (HGK), sequence (O95819 whole entry): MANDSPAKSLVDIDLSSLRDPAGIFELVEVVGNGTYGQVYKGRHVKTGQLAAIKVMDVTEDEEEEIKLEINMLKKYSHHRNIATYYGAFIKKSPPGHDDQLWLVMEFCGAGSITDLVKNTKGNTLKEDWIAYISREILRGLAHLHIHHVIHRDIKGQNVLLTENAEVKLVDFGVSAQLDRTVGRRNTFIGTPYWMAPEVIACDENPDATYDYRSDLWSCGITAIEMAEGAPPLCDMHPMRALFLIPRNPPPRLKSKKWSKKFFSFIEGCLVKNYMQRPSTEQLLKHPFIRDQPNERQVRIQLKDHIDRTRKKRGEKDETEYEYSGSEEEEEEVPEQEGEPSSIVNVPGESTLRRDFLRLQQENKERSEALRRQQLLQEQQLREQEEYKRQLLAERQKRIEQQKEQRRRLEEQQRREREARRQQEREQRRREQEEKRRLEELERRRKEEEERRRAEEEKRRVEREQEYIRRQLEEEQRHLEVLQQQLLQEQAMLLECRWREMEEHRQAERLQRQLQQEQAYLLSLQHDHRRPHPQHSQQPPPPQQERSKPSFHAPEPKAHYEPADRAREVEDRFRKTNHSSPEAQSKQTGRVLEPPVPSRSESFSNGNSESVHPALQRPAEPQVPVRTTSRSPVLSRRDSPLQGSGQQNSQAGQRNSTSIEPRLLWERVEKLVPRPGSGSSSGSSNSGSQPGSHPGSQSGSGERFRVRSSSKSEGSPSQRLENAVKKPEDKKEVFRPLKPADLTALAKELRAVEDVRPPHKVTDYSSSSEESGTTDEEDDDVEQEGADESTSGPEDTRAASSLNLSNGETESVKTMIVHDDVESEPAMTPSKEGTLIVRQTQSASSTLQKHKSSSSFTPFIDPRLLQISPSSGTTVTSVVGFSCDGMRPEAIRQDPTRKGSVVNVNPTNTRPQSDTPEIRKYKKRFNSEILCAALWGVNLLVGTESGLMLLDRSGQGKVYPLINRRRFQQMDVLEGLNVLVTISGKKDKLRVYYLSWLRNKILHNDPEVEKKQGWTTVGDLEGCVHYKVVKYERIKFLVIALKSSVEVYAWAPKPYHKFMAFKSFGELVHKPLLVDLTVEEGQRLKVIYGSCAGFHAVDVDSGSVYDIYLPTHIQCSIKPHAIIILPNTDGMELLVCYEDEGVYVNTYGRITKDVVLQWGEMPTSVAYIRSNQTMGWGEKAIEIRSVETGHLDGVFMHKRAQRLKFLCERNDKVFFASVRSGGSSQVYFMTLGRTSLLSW

With `Cc1cc(F)ccc1-c1cccn2nc(NC3CCc4c(cnn4CC(C)C)C3)nc12` (stereo not shown) [Example 45, [8-(4-fluoro-2-methyl-phenyl)-[1,2,4]triazolo[1,5-a]pyridine-2-yl]-(1-isobutyl-4,5,6,7-tetrahydro-1H-indazol-5-yl)-amine], the inhibition (as a rule, the percentage by which the read-out fell short of the control) at 10 µM is below 40% in assay [1] (setting [3]), 24% in assay [1] (setting [4]), below 40% in assay [2] (setting [5]) and 2% in assay [2] (setting [6]).

Consider `CCn1ncc2c1CC[C@H](Nc1nc3c(-c4ccc(F)c(Cl)c4)cccn3n1)C2` [Example S-61, (S)-[8-(3-Chloro-4-fluoro-phenyl)-[1,2,4]triazolo[1,5-a]pyridine-2-yl]-(1-ethyl-4,5,6,7-tetrahydro-1H-indazol-5-yl)-amine], for which the inhibition at 10 µM is below 40% in assay [1] (setting [3]), 12% in assay [1] (setting [4]), below 40% in assay [2] (setting [5]) and 11% in assay [2] (setting [6]).

As for `CCn1ncc2c1CCC(Nc1nc3c(-c4cccc(Cl)c4)cccn3n1)C2` (stereo not shown) [Example 59, [8-(3-Chloro-phenyl)-[1,2,4]triazolo[1,5-a]pyridine-2-yl]-(1-ethyl-4,5,6,7-tetrahydro-1H-indazol-5-yl)-amine], the inhibition at 10 µM in assay [1] (setting [3]) is below 40%; in assay [1] (setting [4]) it was 22%; in assay [2] (setting [5]) it was 40 to 80%; in assay [2] (setting [6]) it was 57%.

For `Cc1cc(F)ccc1-c1cccn2nc(Nc3ccc4c(cnn4C)c3)nc12` [Example 9, [8-(4-fluoro-2-methyl-phenyl)-[1,2,4]triazolo[1,5-a]pyridine-2-yl]-(1-methyl-1H-indazol-5-yl)-amine], the inhibition at 10 µM in assay [1] (setting [3]) is 40 to 80%; in assay [1] (setting [4]) it was 43%; in assay [2] (setting [5]), below 40%; in assay [2] (setting [6]), 6%.

As to `CCn1ncc2c1CCC(Nc1nc3c(-c4ccccc4C)cccn3n1)C2` (stereo not shown) [Example 56, (1-Ethyl-4,5,6,7-tetrahydro-1H-indazol-5-yl)-[8-(2-methyl-phenyl)-[1,2,4]triazolo[1,5-a]pyridine-2-yl]-amine], the inhibition at 10 µM in assay [1] (setting [3]) is below 40%; in assay [1] (setting [4]) it was 16%; in assay [2] (setting [5]), 40 to 80%; in assay [2] (setting [6]) it was 48%.

`CCn1ncc2c1CCC(Nc1nc3c(-c4cncc(Cl)c4)cccn3n1)C2` (stereo not shown) [Example 73, [8-(5-Chloro-pyridin-3-yl)-[1,2,4]triazolo[1,5-a]pyridine-2-yl]-(1-ethyl-4,5,6,7-tetrahydro-1H-indazol-5-yl)-amine]: the inhibition at 10 µM is 40 to 80% in assay [1] (setting [3]), 49% in assay [1] (setting [4]), 40 to 80% in assay [2] (setting [5]) and 74% in assay [2] (setting [6]).

Take `CCn1ncc2c1CC[C@@H](Nc1nc3c(-c4ccc(F)cc4C)cccn3n1)C2` [Example R-42, (R)-(1-Ethyl-4,5,6,7-tetrahydro-1H-indazol-5-yl)-[8-(4-fluoro-2-methyl-phenyl)-[1,2,4]triazolo[1,5-a]pyridine-2-yl]-amine]: the inhibition at 10 µM is below 40% in assay [1] (setting [3]), 25% in assay [1] (setting [4]), 40 to 80% in assay [2] (setting [5]) and 56% in assay [2] (setting [6]).

In the case of `Cc1cc(F)ccc1-c1cccn2nc(NC3CCc4c(cnn4C)C3)nc12` (stereo not shown) [Example 10, [8-(4-fluoro-2-methyl-phenyl)-[1,2,4]triazolo[1,5-a]pyridine-2-yl]-(1-methyl-4,5,6,7-tetrahydro-1H-indazol-5-yl)-amine], the inhibition at 10 µM is below 40% in assay [1] (setting [3]), 8% in assay [1] (setting [4]), below 40% in assay [2] (setting [5]) and 37% in assay [2] (setting [6]).

Turning to `CCn1ncc2c1CC[C@@H](Nc1nc3c(-c4ccc(F)c(Cl)c4)cccn3n1)C2` [Example R-61, (R)-[8-(3-Chloro-4-fluoro-phenyl)-[1,2,4]triazolo[1,5-a]pyridine-2-yl]-(1-ethyl-4,5,6,7-tetrahydro-1H-indazol-5-yl)-amine], the inhibition at 10 µM in assay [1] (setting [3]) was below 40%; in assay [1] (setting [4]) it was 3%; in assay [2] (setting [5]), below 40%; in assay [2] (setting [6]), 24%.

For the compound `CCn1ncc2c1CCC(Nc1nc3c(-c4cnccc4OC)cccn3n1)C2` (stereo not shown) [Example 68, (1-Ethyl-4,5,6,7-tetrahydro-1H-indazol-5-yl)-[8-(4-methoxy-pyridin-3-yl)-[1,2,4]triazolo[1,5-a]pyridine-2-yl]-amine], the inhibition at 10 µM is below 40% in assay [1] (setting [3]), 28% in assay [1] (setting [4]), 40 to 80% in assay [2] (setting [5]) and 42% in assay [2] (setting [6]).

`Fc1cccc(-c2cccn3nc(Nc4ccc5[nH]cnc5c4)nc23)c1` [Cpd. 293 in WO09155551, reference compound]: the inhibition at 10 µM in assay [1] (setting [3]) was above 80%; in assay [1] (read-out: % Inhibition mean) it was 94%; in assay [2] (setting [5]), above 80%; in assay [2] (read-out: % Inhibition mean), 95%.

Take `CCn1ncc2c1CCC(Nc1nc3c(-c4cccnc4)cccn3n1)C2` (stereo not shown) [Example 63, (1-Ethyl-4,5,6,7-tetrahydro-1H-indazol-5-yl)-(8-pyridin-3-yl-[1,2,4]triazolo[1,5-a]pyridine-2-yl)-amine]: the inhibition at 10 µM in assay [1] (setting [3]) is below 40%; in assay [1] (setting [4]), 14%; in assay [2] (setting [5]) it was 40 to 80%; in assay [2] (setting [6]), 48%.

Consider `CCn1ncc2c1CCC(Nc1nc3c(-c4ccccc4)cccn3n1)C2` (stereo not shown) [Example 57, (1-Ethyl-4,5,6,7-tetrahydro-1H-indazol-5-yl)-(8-phenyl-[1,2,4]triazolo[1,5-a]pyridine-2-yl)-amine], for which the inhibition at 10 µM was below 40% in assay [1] (setting [3]), 13% in assay [1] (setting [4]), 40 to 80% in assay [2] (setting [5]) and 58% in assay [2] (setting [6]).

For the origin of these results see US11339161B2, “Triazolo pyridines as modulators of gamma-secretase” (Boehringer Ingelheim International GmbH, priority 2017, dated 2022).
